Measured values: ChEMBL document CHEMBL3421546 (Bioorg Med Chem Lett, 2015)
Values after ≈ are worked out from the molar mass of the structure shown.

What was measured:
[1] = test system: Plasmodium falciparum; experiment: Antimalarial activity against CQ-resistant Plasmodium falciparum W2 cultivated in human type O+ red blood cells assessed as reduction in parasite infection incubated for 48 hrs by microscopy; type: functional, organism-based; conditions: W2, 48 h
[2] = Cytotoxic activity against human HeLa cells assessed as cell viability at 10 ug/ml incubated for 24 hrs by MTT assay; type: cell-based; conditions: read-out: Activity
[3] = test system: Plasmodium falciparum; experiment: Antimalarial activity against CQ-sensitive Plasmodium falciparum 3D7 cultivated in human type O+ red blood cells assessed as reduction in parasite infection incubated for 48 hrs by microscopy; type: functional, organism-based; conditions: 3D7, 48 h
[4] = Cytotoxic activity against human HeLa cells assessed as cell viability at 100 ug/ml incubated for 24 hrs by MTT assay; type: cell-based; conditions: read-out: Activity
[5] = Cytotoxic activity against human HeLa cells assessed as cell viability at 1000 ug/ml incubated for 24 hrs by MTT assay; type: cell-based; conditions: read-out: Activity
[6] = Cytotoxic activity against human HeLa cells assessed as reduction in cell viability incubated for 24 hrs by MTT assay; type: cell-based
[7] = Cytotoxic activity against human HeLa cells assessed as cell viability at 0.1 ug/ml incubated for 24 hrs by MTT assay; type: cell-based; conditions: read-out: Activity
[8] = Selectivity index, ratio of CC50 for human HeLa cells to IC50 for CQ-sensitive Plasmodium falciparum 3D7; type: functional
[9] = Cytotoxic activity against human HeLa cells assessed as cell viability at 1 ug/ml incubated for 24 hrs by MTT assay; type: cell-based; conditions: read-out: Activity
[10] = Cytotoxic activity against human HepG2 cells assessed as cell viability at 1000 ug/ml incubated for 24 hrs by MTT assay; type: cell-based; conditions: read-out: Activity
[11] = Cytotoxic activity against human HepG2 cells assessed as cell viability at 10 ug/ml incubated for 24 hrs by MTT assay; type: cell-based; conditions: read-out: Activity
[12] = Selectivity index, ratio of CC50 for human HepG2 cells to IC50 for CQ-sensitive Plasmodium falciparum 3D7; type: functional
[13] = Cytotoxic activity against human HepG2 cells assessed as cell viability at 1 ug/ml incubated for 24 hrs by MTT assay; type: cell-based; conditions: read-out: Activity
[14] = Cytotoxic activity against human HepG2 cells assessed as cell viability at 100 ug/ml incubated for 24 hrs by MTT assay; type: cell-based; conditions: read-out: Activity
[15] = Cytotoxic activity against human HepG2 cells assessed as cell viability at 0.1 ug/ml incubated for 24 hrs by MTT assay; type: cell-based; conditions: read-out: Activity
[16] = Cytotoxic activity against human HepG2 cells assessed as reduction in cell viability incubated for 24 hrs by MTT assay; type: cell-based
[17] = test system: Plasmodium berghei; experiment: Antimalarial activity against Plasmodium berghei NK65 infected in Swiss albino mouse assessed as inhibition of parasitemia at 10 mg/kg, po dosed for four consecutive days beginning on first day of infection and measured on day 12 post infection relative to untreated control; type: functional; conditions: NK65, 288 h
[18] = test system: Mus musculus; experiment: Toxicity in Plasmodium berghei NK65 infected Swiss albino mouse assessed as mouse survival at 10 mg/kg, po dosed for four consecutive days beginning on first day of infection and measured on day 12 post infection relative to untreated control; type: organism-based; set-up: dose 10 mg/kg, route oral; conditions: in vivo
[19] = test system: Plasmodium berghei; experiment: Antimalarial activity against Plasmodium berghei NK65 infected in Swiss albino mouse assessed as parasitemia level at 10 mg/kg, po dosed for four consecutive days beginning on first day of infection and measured on day 12 post infection (reference value: 8.81 +/- 1.17%); type: functional
[20] = test system: Plasmodium berghei; experiment: Antimalarial activity against Plasmodium berghei NK65 infected in Swiss albino mouse assessed as parasitemia level at 10 mg/kg, po dosed for four consecutive days beginning on first day of infection and measured on day 7 post infection (reference value: 5.42 +/- 0.79%); type: functional
[21] = test system: Mus musculus; experiment: Toxicity in Plasmodium berghei NK65 infected Swiss albino mouse assessed as mouse survival at 10 mg/kg, po dosed for four consecutive days beginning on first day of infection and measured on day 7 post infection relative to untreated control; type: organism-based; set-up: dose 10 mg/kg, route oral; conditions: in vivo
[22] = test system: Mus musculus; experiment: Toxicity in Plasmodium berghei NK65 infected Swiss albino mouse assessed as mouse mortality at 10 mg/kg, po dosed for four consecutive days beginning on first day of infection and measured on day 12 post infection relative to untreated control; type: organism-based; set-up: dose 10 mg/kg, route oral; conditions: in vivo
[23] = test system: Plasmodium berghei; experiment: Antimalarial activity against Plasmodium berghei NK65 infected in Swiss albino mouse assessed as inhibition of parasitemia at 10 mg/kg, po dosed for four consecutive days beginning on first day of infection and measured on day 7 post infection relative to untreated control; type: functional; conditions: NK65, 168 h
[24] = test system: Mus musculus; experiment: Toxicity in Plasmodium berghei NK65 infected Swiss albino mouse assessed as mouse mortality at 10 mg/kg, po dosed for four consecutive days beginning on first day of infection and measured on day 7 post infection relative to untreated control; type: organism-based; set-up: dose 10 mg/kg, route oral; conditions: in vivo

C[C@H]1[C@H](OC(=O)CCC(=O)O)O[C@@H]2O[C@@]3(C)CC[C@H]4[C@H](C)CC[C@@H]1[C@@]24OO3 [ARTESUNATE] gave an IC50 [1] of under 0.39 µg/mL.
Molecule O=S(=O)(Nc1nccs1)c1ccc(Nc2ccnc3cc(Cl)ccc23)cc1 has a viability at 24 h, 10 ug/ml [2] of 60%, an IC50 [3] of 5.97 µg/mL (≈ 14.3 µM) and a viability at 24 h, 100 ug/ml [4] of 65%. It also gave a viability at 24 h, 1000 ug/ml [5] of 12%, a CC50 at 24 h [6] of 334 µg/mL (≈ 801 µM) and a viability at 24 h, 0.1 ug/ml [7] of 74%. The “Ratio CC50/IC50” value [8] was 56 and the viability at 24 h, 1 ug/ml [9] was 71%.
For O=S(=O)(Nc1ccccn1)c1ccc(Nc2ccnc3cc(Cl)ccc23)cc1, the viability at 24 h, 10 ug/ml [2] was 68%, the IC50 [3] was 3.64 µg/mL (≈ 8.86 µM) and the viability at 24 h, 100 ug/ml [4] was 53%. For the same molecule, the viability at 24 h, 1000 ug/ml [10] was 48%, the viability at 24 h, 10 ug/ml [11] was 86% and the viability at 24 h, 1000 ug/ml [5] was 11%. For the same molecule, the CC50 at 24 h [6] was 113 µg/mL (≈ 275 µM), the viability at 24 h, 0.1 ug/ml [7] was 82% and the “Ratio CC50/IC50” value [12] was 69. For the same molecule, the “Ratio CC50/IC50” value [8] was 31, the viability at 24 h, 1 ug/ml [13] was 97% and the viability at 24 h, 100 ug/ml [14] was 57%. For the same molecule, the viability at 24 h, 1 ug/ml [9] was 78%, the viability at 24 h, 0.1 ug/ml [15] was 92% and the CC50 at 24 h [16] was 252 µg/mL (≈ 613 µM).
Cc1cc(NS(=O)(=O)c2ccc(Nc3ccnc4cc(Cl)ccc34)cc2)no1 showed a viability at 24 h, 10 ug/ml [2] of 59%, an IC50 [3] of 23.8 µg/mL (≈ 57.5 µM) and a viability at 24 h, 100 ug/ml [4] of 61%. It also gave a viability at 24 h, 1000 ug/ml [5] of 17%, a CC50 at 24 h [6] of 290 µg/mL (≈ 699 µM) and a viability at 24 h, 0.1 ug/ml [7] of 67%. The “Ratio CC50/IC50” value [8] was 12 and the viability at 24 h, 1 ug/ml [9] was 72%.
For CCN(CC)CCCC(C)Nc1ccnc2cc(Cl)ccc12 (centres undefined) [CHLOROQUINE], the viability at 24 h, 10 ug/ml [2] was 97%, the IC50 [3] was under 0.19 µg/mL and the inhibition in vivo at 10 mg/kg [17] was 82%. The Activity [18] was “Non-toxic”, the viability at 24 h, 100 ug/ml [4] was 100% and the Activity [19] was 1.55%. The IC50 [1] was under 0.39 µg/mL, the Activity [20] was 1.72% and the Activity [21] was “Non-toxic”. For the same molecule, the viability at 24 h, 1000 ug/ml [10] was 60%, the viability at 24 h, 10 ug/ml [11] was 92% and the viability at 24 h, 1000 ug/ml [5] was 92%. The CC50 at 24 h [6] was over 1000 µg/mL, the Activity [22] was “Non-toxic” and the inhibition in vivo at 10 mg/kg [23] was 68%. For the same molecule, the viability at 24 h, 0.1 ug/ml [7] was 98%, the “Ratio CC50/IC50” value [12] was over 1000 and the “Ratio CC50/IC50” value [8] was over 1000. For the same molecule, the viability at 24 h, 1 ug/ml [13] was 97%, the viability at 24 h, 100 ug/ml [14] was 67% and the viability at 24 h, 1 ug/ml [9] was 94%. For the same molecule, the Activity [24] was “Non-toxic”, the viability at 24 h, 0.1 ug/ml [15] was 93% and the CC50 at 24 h [16] was over 1000 µg/mL.
For O=S(=O)(Nc1ncccn1)c1ccc(Nc2ccnc3cc(Cl)ccc23)cc1, the viability at 24 h, 10 ug/ml [2] was 76%, the IC50 [3] was 16.3 µg/mL (≈ 39.6 µM) and the viability at 24 h, 100 ug/ml [4] was 75%. For the same molecule, the viability at 24 h, 1000 ug/ml [10] was 68%, the viability at 24 h, 10 ug/ml [11] was 89% and the viability at 24 h, 1000 ug/ml [5] was 22%. The CC50 at 24 h [6] was 494 µg/mL (≈ 1200 µM), the viability at 24 h, 0.1 ug/ml [7] was 85% and the “Ratio CC50/IC50” value [12] was over 61. The “Ratio CC50/IC50” value [8] was 30, the viability at 24 h, 1 ug/ml [13] was 90% and the viability at 24 h, 100 ug/ml [14] was 75%. It also gave a viability at 24 h, 1 ug/ml [9] of 82%, a viability at 24 h, 0.1 ug/ml [15] of 85% and a CC50 at 24 h [16] of over 1000 µg/mL.
In the case of NNC(=O)c1cccnc1 [NICOTINIC ACID HYDRAZIDE], the viability at 24 h, 10 ug/ml [2] is reported as 92%, the IC50 [3] is reported as over 50 µg/mL and the viability at 24 h, 100 ug/ml [4] is reported as 58%. It also gave a viability at 24 h, 1000 ug/ml [5] of 25%, a CC50 at 24 h [6] of 153 µg/mL (≈ 1120 µM) and a viability at 24 h, 0.1 ug/ml [7] of 88%. The “Ratio CC50/IC50” value [8] was under 3.06 and the viability at 24 h, 1 ug/ml [9] was 87%.
In the case of NS(=O)(=O)c1ccc(Nc2ccnc3cc(Cl)ccc23)cc1, the viability at 24 h, 10 ug/ml [2] is reported as 100%, the IC50 [3] is reported as 2.18 µg/mL (≈ 6.53 µM) and the viability at 24 h, 100 ug/ml [4] is reported as 91%. It also gave a viability at 24 h, 1000 ug/ml [10] of 43%, a viability at 24 h, 10 ug/ml [11] of 85% and a viability at 24 h, 1000 ug/ml [5] of 37%. For the same molecule, the CC50 at 24 h [6] was 793 µg/mL (≈ 2380 µM), the viability at 24 h, 0.1 ug/ml [7] was 93% and the “Ratio CC50/IC50” value [12] was 112. For the same molecule, the “Ratio CC50/IC50” value [8] was 364, the viability at 24 h, 1 ug/ml [13] was 94% and the viability at 24 h, 100 ug/ml [14] was 65%. It also gave a viability at 24 h, 1 ug/ml [9] of 95%, a viability at 24 h, 0.1 ug/ml [15] of 93% and a CC50 at 24 h [16] of 234 µg/mL (≈ 701 µM).
